Experiments:
[1] = tested on: Mycobacterium smegmatis mc^2 (ATCC 700084); test: Evaluation of mycobacterium-protective activity in freeze-dried condition; format: cell-based; conditions: for Numbers of live bacterial cells (relative numbers): Mycobacterium smegmatis freeze-dried with 6% aqueous solution (final concentration 3%), test sample 3 (FD) = 1
Description: Using test samples 1 to 5 containing mycobacterium prepared in the following manner, microorganism-protective activity with trehalose or 4-trehalosamine in a freeze-dried condition was evaluated.
Frozen stock of mycobacterium ([…] Mycobacterium smegmatis mc^2 (American Type Culture Collection (ATCC) 700084)) was inoculated in 10 mL of Middlebrook 7H9 culture medium (manufactured by Becton, Dickinson and Company) and cultured at 37° C. for 72 hours while shaking it at 220 rpm. After culture, it was centrifuged at 3,000×g for 5 minutes, washed once with 10 mL of water, and then suspended in 10 mL of water, thus obtaining mycobacterium suspension. 50 μL of water was added to and mixed with 50 μL of this mycobacterium suspension, and the mixture was left to stand at 4° C. for 20 hours, preparing control (NF).
After mycobacterium suspension was prepared in a similar manner to test sample 1, 50 μL of 6% aqueous solution of trehalose was added to and mixed with 50 µL of the mycobacterium suspension, and the mixture was frozen at −80° C. for 10 minutes. It was then freeze-dried for 20 hours with a freeze dryer (FLEXI-DRY, manufactured by FTS systems INC., Warminster) connected to a vacuum pump (P65D, manufactured by PHIL Sato Vac INC.), preparing freeze-dried product (TRH) of mycobacterium with TRH.
Freeze-dried product (4TA) of mycobacterium with 4TA was obtained in a similar manner to the preparation method of test sample 4 except that trehalose was changed to 4-trehalosamine (4TA) in the preparation method of test sample 4.
For test samples 1 and 2, serial suspensions were made by diluting them to 1/10 with water. […]
Wells in which the number of colonies was measurable were selected and the numbers (relative numbers) of live bacterial cells per well on test samples 1, 2, 4, and 5 when the number of live bacterial cells per well on test sample 3 (FD) was “1” were calculated in consideration of the dilution concentrations of those test samples.

[2] = Starch aging inhibiting effect, enzyme assay 4 (rice flour gel); conditions: final concentration 10% or 15% (w/w), 48 and 96 hours
Description: Starch aging inhibiting effect was determined in a similar manner to the <Enzyme assay 3> except that potato starch was changed to rice flour (manufactured by OSAWA JAPAN) in the “—Preparation of measurement samples—” of the <Enzyme assay 3>. The results for the 10% (w/w) final concentration of the different sugars are shown in FIG. 15G, and the results for the 15% (w/w) final concentration of the different sugars are shown in FIG. 15H.

[3] = Starch aging inhibiting effect, enzyme assay 5 (wheat flour gel); conditions: final concentration 10% or 15% (w/w), 48 and 96 hours
Description: Starch aging inhibiting effect was determined in a similar manner to the <Enzyme assay 3> except that potato starch was changed to wheat flour (organic wheat flour, from Kanazawa Daichi) in the “—Preparation of measurement samples—” of the <Enzyme assay 3>. The results for the 10% (w/w) final concentration of the different sugars are shown in FIG. 15I, and the results for the 15% (w/w) final concentration of the different sugars are shown in FIG. 15J.

[4] = Dynamic viscoelasticity measurement of corn starch gel; format: physicochemical; conditions: corn starch gel with 10% aqueous solution, 4° C., after 96 hours
Description: In 20-mL glass vials, corn starch (manufactured by FUJIFILM Wako Pure Chemical Corporation) was mixed with each of the 10% aqueous solution of 4-trehalosamine (4TA), 10% aqueous solution of trehalose (TRH), 10% aqueous solution of sucrose (SCR), and 10% aqueous solution of glycerol (GOL), which are the test samples, or water as control to a final concentration of 15% (w/w) and uniformly suspended, and the suspensions were autoclaved at 121° C. for 20 minutes to gel them. For each of them, 0-hour sample and 96-hour sample were prepared.
After cooling them to room temperature, dynamic viscoelasticity measurement was performed on the 0-hour sample within 4 hours. The 96-hour sample was left to stand at 4° C. for 96 hours and then subjected to dynamic viscoelasticity measurement.
The dynamic viscoelasticity measurement was performed using a MCR300 rheometer (manufactured by Physica, Stuttgart, Germany) under the condition of the gap of a 25-mm parallel plate measurement tool being 1.0 mm. Under the conditions of a fixed frequency of 1.0 Hz, a strain amplitude of 1%, and 25° C., a storage modulus (G′) and a loss modulus (G″) were measured and a loss tangent (tan δ=G″/G′) was calculated. In FIG. 15K, the value of tan δ is indicated on the vertical axis (n=5, mean±S.D.).

SMILES	Numbers of live bacterial cells (relative numbers) [1]	rate of degradation by β-amylase (starch aging inhibiting effect) [2]	rate of degradation by β-amylase (starch aging inhibiting effect) [3]	change in loss tangent (tan δ) value [4]	protective effect on microorganisms, comparison ([1]; Mycobacterium smegmatis, freeze-dried)
OC[C@H]1O[C@H](O[C@H]2O[C@H](CO)[C@@H](O)[C@H](O)[C@H]2O)[C@H](O)[C@@H](O)[C@@H]1O [trehalose, reference compound]	10				
N[C@H]1[C@H](O)[C@@H](O)[C@@H](O[C@H]2O[C@H](CO)[C@@H](O)[C@H](O)[C@H]2O)O[C@@H]1CO [4-trehalosamine]	100	significantly high rate of degradation by β-amylase at and after 48 hours compared to the other gels	significantly high rate of degradation by β-amylase at and after 48 hours compared to the other gels	little change or a slight increase in the loss tangent value	stronger than when trehalose was added

Reference: patent US20250002954A1, “Novel Compound, Use Thereof, and Method for Producing Same, and Compound-Containing Composition, Method for Producing 4-Trehalosamine, and Microorganism” (Microbial Chemistry Research Foundation, priority 2021, published 2025)
